The source of these data is publication PMC10136361 (Biomolecules, 2023).

Test [1] concerns the target T1, MmGSTP1-1 (Mus musculus, UniProt P19157).
T1 construct: gene Gstp1; recombinant MmGSTP1-1 (GenBank BC061109.1), expressed in E. coli
In words: CDNB-GSH enzyme assay at […] nm, inhibition kinetics (KiE, GSH varied); IC50 […]. In kind it is biochemical.

Test [2] deals with T1, MmGSTP1-1. In words: X-ray co-crystal structure, […] Å. In kind it is binding.
For test [3], the target named is T1, MmGSTP1-1. Put plainly: CDNB-GSH enzyme assay, single concentration […]. As to conditions: read-out: % inhibition at 25 μM. Format: biochemical.
In test [4] the target is T1, MmGSTP1-1. In words: steady-state kinetics (Km). Format: biochemical.

T1 sequence (P19157 2-210): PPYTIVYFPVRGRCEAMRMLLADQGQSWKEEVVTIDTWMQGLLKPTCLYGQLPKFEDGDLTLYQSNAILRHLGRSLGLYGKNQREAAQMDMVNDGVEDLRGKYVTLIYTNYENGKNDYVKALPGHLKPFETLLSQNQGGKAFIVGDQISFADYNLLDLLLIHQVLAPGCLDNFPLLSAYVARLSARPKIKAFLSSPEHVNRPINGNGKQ

`CC(C)NC(=O)N1CC(=O)N(c2cc(Cl)cc(Cl)c2)C1=O` [iprodione, 3-(3,5-dichlorophenyl)-2,4-dioxo-N-propan-2-ylimidazolidine-1-carboxamide]: on MmGSTP1-1 [1], the affinity, expressed as Ki, was 5.2 ± 0.1 µM.

Turning to `N[C@@H](CCC(=O)N[C@@H](CSCc1ccc([N+](=O)[O-])cc1)C(=O)NCC(=O)O)C(=O)O` [S-(p-nitrobenzyl)glutathione], on MmGSTP1-1 [2], the “X-ray co-crystal structure, 1.28 Å” value is “A molecule of Nb-GSH was found bound in the active site of each molecule of the dimer”.

Turning to `Cc1cc(C)c(C2=C(OC(=O)CC(C)(C)C)C3(CCCC3)OC2=O)c(C)c1` [spiromesifen], the inhibition at 25 µM at MmGSTP1-1 [3] was 70%.

With `CSC1=N[C@@](C)(c2ccccc2)C(=O)N1Nc1ccccc1` [fenamidone], the inhibition at 25 µM on MmGSTP1-1 [3] amounted to 53%.

Take `CC1(C)[C@H](C(=O)O[C@H](C#N)c2cccc(Oc3ccccc3)c2)[C@@H]1C=C(Br)Br` [deltamethrin]: at MmGSTP1-1 [3], the inhibition at 25 µM was found to be 82%.

With `O=[N+]([O-])c1ccc(Cl)c([N+](=O)[O-])c1` [1-chloro-2,4-dinitrobenzene], at MmGSTP1-1 [4], the Km was found to be 800 ± 40 µM.

Take `O=S1OC[C@@H]2[C@H](CO1)[C@@]1(Cl)C(Cl)=C(Cl)[C@]2(Cl)C1(Cl)Cl` (stereo partly drawn) [α-endosulfan]: on MmGSTP1-1 [3], the inhibition at 25 µM came out at 58%.
